Reference: patent US20040126751A1 (priority 2002, published 2004)
Where “and” joins values, the source holds several entries; their conditions need not be identical. Identical values can stand only once.

Key:
[1] = tested on: ATP-dependent potassium current (IK(ATP)); test: whole-cell patch-clamp of pinacidil-primed IK(ATP) in isolated ventricular myocytes; type: cell-based, guinea pig; details: for outward current density at +30 mV under control conditions: before pinacidil
Text: The electrophysiological properties of a cardiac myocyte are strongly affected by its energetic condition. Particularly, the adenosine triphosphate (ATP)-dependent potassium current (IK(ATP)) is known to link bioenergetic metabolism with membrane excitability by sensing intracellular concentrations of ATP and adenosine diphosphate (ADP). Under physiological conditions, ATP-dependent potassium channels (K(ATP)-channels) are predominantly closed due to inhibition by intracellular ATP (ATPi). However, when the ATPi concentration falls below certain values (like in pathological states such as acute myocardial ischaemia), the K(ATP)-channels open. […] Thus, the amount of IK(ATP) activation induced by these drugs serves as an indicator of the intracellular ATP-content.
In this example, guinea pig ventricular myocytes were isolated by Langendorff perfusion using collagenase, as is described in H. M. Piper et al., Culturing of calcium stable adult cardiac myocytes, J. Mol. Cell Cardiol. 14 (1982), pp. 397-412. The isolated myocytes were stored in a cell culture medium M 199 (Sigma™, St. Louis, Mo.), supplemented with 5 μg/ml penicillin and 5 IU/ml of streptomycin and were kept in an incubator at 37° C. All experiments were performed within 24 hours after isolation of the myocytes.
Membrane currents were recorded using the whole-cell single electrode voltage-clamp configuration of the patch-clamp technique (see O. P. Hamill et al., Improved patch-clamp techniques for high-resolution current recording from cells and cell-free membrane patches, Pflüger's Arch. 391 (1981), pp. 85-100) using a List L/M-EPC 7 amplifier (List™, Darmstadt, Germany) as previously described by Pelzmann and coworkers in B. Pelzmann et al., Effects of K^+ channel openers on IK(ATP) of human atrial myocytes at physiological temperatures, Naunyn-Schmiedeberg's Arch. […] Only quiescent rod-shaped cells with clear cross striation were used for voltage-clamp experiments. Cell membrane capacitance (Cm) was determined by integration of the capacitive transient elicited by a 10 mV hyperpolarizing pulse from −50 mV. Cm (up to 100 pF) and series resistance (Rs, by at least 50%) were compensated. Voltage-clamp pulses were generated with an IBM-compatible computer connected to a D/A and A/D converter (Digidata 1200™, Axon Instruments, Foster City, USA). Data acquisition and analyses were performed using pCLAMP 5.7.1 software (Axon Instruments). In order to allow equilibration of the pipette solution with the cytosol, current recordings were started five minutes after rupture of the membrane patch.
Two experimental protocols were used in these examples. Modulation of IK(ATP) by drugs was evaluated as the change of outward current density (current amplitudes divided by Cm (pA/pF) in order to compensate for variations in cell size) at +30 mV in response to a 2 second ramp from −100 to +60 mV (Iramp). Time course of IK(ATP) activation and blockade was studied by recording the holding current at −40 mV (Ihold(−40 mV)). Stock solutions of IK(ATP) channel blocker glibenclamide (Sigma™) and of K(ATP) channel opener pinacidil (Sigma™) were prepared in dimethyl sulfoxide (DMSO). Averaged data are expressed as a mean±standard deviation (or standard error of the mean, SEM), with n=number of cells. Error bars in the figures represent standard deviations (except in FIG. 5).
(§1) Statistical significance was determined by a two-tailed Student's t-test or, if more than two conditions were compared, by one-way analysis of variance (ANOVA) with the LSD (least significant difference) post hoc test. Differences were considered significant when P<0.05.

rat striatal slices = details: cited from earlier work
PC 12 cells = details: NADH-supplementation of PC 12 cells; cited from earlier work
cardiomyocytes = test: HPLC determination of intracellular adenine nucleotide content of cardiomyocytes; type: cell-based, guinea pig; details: four hours
Protocol: The analytical method used for the determination of adenine nucleotides was that reported in Hallström, S. et al., “S-nitroso human serum albumin treatment reduces ischemia/reperfusion injury in skeletal muscle via nitric oxide release,” Circulation, 105 (2002), 3023-3038 (“Hallström et al.”). In brief, the only alterations from the analytical method reported by Hallström et al. were as follows: separation was performed on a Hypersil ODS column (5 μm, 250 mm×4 mm I.D.) using a Waters™ 717 plus Autosampler, two constaMetric™ III pumps, a gradient controller (LDC/Milton Roy) and a Waters™ 969 photodiode array detector; detector signals (absorbance at 254 nm) were recorded with an AGC™ Personal Computer; and the program Millennium (Waters™) was used for data requisition and analysis. Cardiomyocytes were deproteinized with 250 μL of 0.4 M/L perchloric acid. After centrifugation (12,000 g), 200 μL of the acid extract were neutralized with 12.5 μL of 2 M potassium carbonate (4° C.). The supernatant (10 μL) obtained after centrifugation was used for High Performance Liquid Chromatography (HPLC) analysis. The pellets of the acid extract were dissolved in 1 mL of 0.1 M sodium hydroxide and further diluted 1:10 with physiologic saline for protein determination (BCA Protein Assay, Pierce). The percentage of living cells was estimated by determining the ratio of the number of rod shaped to rounded myocytes. At least 600 myocytes were counted for each preparation.
as §1

[2] = incubation in amounts equimolar to 400 μg/ml NADH

SMILES: NC(=O)c1ccc[n+]([C@@H]2O[C@H](COP(=O)([O-])OP(=O)(O)OC[C@H]3O[C@@H](n4cnc5c(N)ncnc54)[C@H](O)[C@@H]3O)[C@@H](O)[C@H]2O)c1 [NAD^+, β-nicotinamide adenine dinucleotide, oxidized form]
- outward current density after washout of pinacidil [1, 2]: 1.44±0.25 pA/pF
- outward current density at +30 mV after addition of 30 μM pinacidil [1, 2]: 29.0±7.01 pA/pF
- outward current density at +30 mV under control conditions [1, 2]: 1.96±0.20 pA/pF

SMILES: NC(=O)C1=CN(C2OC(COP(=O)([O-])OP(=O)([O-])OCC3OC(n4cnc5c(N)ncnc54)C(O)C3O)C(O)C2O)C=CC1.[Na+].[Na+] (stereo not drawn) [NADH, β-nicotinamide adenine dinucleotide, reduced form, disodium salt]
- dopamine release (rat striatal slices): increase of dopamine release
- dopamine production (PC 12 cells): increased dopamine production
- outward current density at +30 mV after application of pinacidil ([1]; incubation 200 μg/ml, 30 μM pinacidil, 4.3 mM ATPi): 25.4±3.97 pA/pF
- outward current density at +30 mV under control conditions ([1]; incubation 200 μg/ml, 4-6 hours): 1.82±0.33 pA/pF
- outward current density after washout of pinacidil ([1]; incubation 300 μg/ml): 1.09±0.14 pA/pF
- outward current density at +30 mV under control conditions ([1]; incubation 300 μg/ml, 4-6 hours): 1.72±0.19 pA/pF
- outward current density at +30 mV under control conditions ([1]; incubation 400 μg/ml, 4-6 hours): 1.70±0.18 pA/pF
- outward current density after washout of pinacidil ([1]; incubation 800 μg/ml): 1.75±0.48 pA/pF
- outward current density at +30 mV under control conditions ([1]; incubation 800 μg/ml, 4-6 hours): 1.76±0.36 pA/pF
- outward current density at +30 mV under control conditions ([1]; incubation 1600 μg/ml, 4-6 hours): 2.53±0.49 pA/pF
- ATP content in cardiomyocytes (cardiomyocytes; 400 mcg per ml cell culture medium, control 35.35±2.57): 45.59±1.88 nmol/mg protein of living cells
- ADP content in cardiomyocytes compared to control (cardiomyocytes; 400 mcg per ml): no significant alteration
- AMP content in cardiomyocytes compared to control (cardiomyocytes; 400 mcg per ml): no significant alteration

SMILES: COc1ccc(Cl)cc1C(=O)NCCc1ccc(S(=O)(=O)NC(=O)NC2CCCCC2)cc1 [glibenclamide]
- inhibition of pinacidil-activated IK(ATP) ([1]; 1 μM glibenclamide after 30 μM pinacidil): completely inhibited
- effect on basal Iramp ([1]; physiological conditions, 4.3 mM ATPi, data not shown): did not affect Iramp

SMILES: CC(N/C(=N\C#N)Nc1ccncc1)C(C)(C)C (stereo not drawn) [pinacidil]
- outward current density at +30 mV (Iramp) ([1]; 30 μM pinacidil, 1 mM ATPi): 52.2±13.8 pA/pF
- outward current density at +30 mV (Iramp) ([1]; 30 μM pinacidil, 4.3 mM ATPi, control myocytes): 28.9±3.38 pA/pF and 28.3±3.26 pA/pF
- outward current density at +30 mV after washout ([1]; after washout of 30 μM pinacidil (5 minutes), control myocytes): 1.81±0.22 pA/pF and 1.81±0.21 pA/pF

SMILES: NC(=O)c1cccnc1 [nicotinamide]
- outward current density after washout of pinacidil [1, 2]: 1.13±0.15 pA/pF
- outward current density at +30 mV after addition of 30 μM pinacidil [1, 2]: 30.5±4.83 pA/pF
- outward current density at +30 mV under control conditions [1, 2]: 2.01±0.36 pA/pF
